From patent US20230257423A1, “COMPOSITIONS FOR TREATING EPITHELIAL BARRIER FUNCTION DISORDERS” (ENTEROME, priority 2020, published 2023)

Key:
PBMC derived DCs = assay: Array (transcriptomics) on PBMC derived DCs; assay type: cell-based, human; set-up: SLC39A14 gene expression / IL6 gene expression / CCL1 gene expression / CCL8 gene expression / TNF-α gene expression: unit not given here; settings: 3 donors, 6h, TNF-α 10 ng/ml, PHA 3 μg/ml, LPS 3 ng/ml, PAM3CSK4 10 ng/ml, MDP 5 μg/ml
Method: DCs from three different donors were seeded at 1.0×10^5 DCs/well in a 48 well plate in 0.5 ml of complete IMDM. The effect of the active fractions of the F4 clone was compared to the same fractions purified from the negative control (pBAD-fractions). TNF-α (10 ng/ml), PHA (3 μg/ml), LPS (3 ng/ml), PAM3CSK4 (10 ng/ml), and MDP 5 μg/ml were used as control.
Data were generated and analyzed using Spotfire software.
Transcriptomics was carried out on PBMC derived DCs from 3 donors.
DCs were stimulated (6h) with: • TNFα, PHA, LPS, PAM3CSK4, MDP=Positive control • F13, F25=HPLC fractions obtained from the complemented and functional F4D5-MsbA1-A2 clone • F4D5-pBAD-F13, F4D5-pBAD-F25=HPLC fractions obtained from the F4D5-pBADclone (negative control)
Data analysis was realised using TIBCO Spotfire software. The F4 fractions (from both positive and negative clones) were analysed individually and compared to known agonists (TNFα, PHA, LPS, PAM3CSK4, MDP).

[1] = tested on: Monocyte-derived Dendritic Cells; assay: AlphaLISA IL10 secretion by dendritic cells; assay type: cell-based, human; settings: for IL-10 secretion from DCs in co-stimulation with TLR activators: LPS 100 ng/ml or FIMH 10 μg/ml, mean of 3 MoDC donors, FIG. 9
Method: Dendritic Cells (DCs) were prepared from PBMC (Buffy Coat) and differentiated with GM-CSF (D 1:10000; =5 μl/50 ml) and IL-4 (D 1:5000; =10 μl/50 ml).
In this test, 30,000 cells/well were seeded in complete IMDM media (2 mM L-glutamine, 50 IU/mL penicillin, […] streptomycin, 10 mM Hepes and 10% heat-inactivated foetal calf serum) in 96 wells plates 24h before activation (and kept in a humidified 5% CO2 atmosphere at 37° C.). Pre-purified, or HPLC-eluted, fractions as well as EB7020 chemically synthetized and various controls were added to reporter cells at 10% vol/vol to a final volume of 100 μl.
AlphaLisa (Perkin Elmer) was realized on supernatant according the supplier protocol (for complete references: AlphaLISA® Research Reagents Human Interleukin 10 (IL10) Kit Product No.: AL218 C/F sold by PerkinElmer).

Compound | CCL1 gene expression (PBMC derived DCs) | CCL8 gene expression (PBMC derived DCs) | IL6 gene expression (PBMC derived DCs) | PERP gene expression (PBMC derived DCs) | PMP22 gene expression (PBMC derived DCs) | SLC39A14 gene expression (PBMC derived DCs) | TNF-α gene expression (PBMC derived DCs) | IL-10 secretion from DCs in co-stimulation with TLR activators [1] | IL-10 secretion from human DCs ([1]; chemically synthesized compound, in presence of LPS, FIG. 8)
CC(=O)N[C@@H]1[C@@H](O[C@H](C)C(=O)N[C@@H](C)C(=O)N[C@H](CCC(=O)O)C(N)=O)[C@H](O)[C@@H](CO)O[C@H]1O [MDP] | 3.1 | 4.1 | 9.4 | 1.6 | 1.0 | 0.9 | 3.5 | – | –
TNF-α | 4.2 | 11.2 | 32.9 | 1.0 | 0.8 | 1.2 | 5.6 | – | –
CC(=O)NC1C(OP(=O)(O)O)OC(CO)C(O)C1OC(C)C(=O)NC(C)C(=O)NC(CCC(=O)NC(CCCC(N)C(=O)O)C(=O)O)C(=O)O (stereo not shown) [EB7020, M-Tri-DAP monophosphate] | – | – | – | – | – | – | – | Synergy | IL-10 secretion is induced
PAM3CSK4 | 30.6 | 64.8 | 718.1 | 2.6 | 1.0 | 1.6 | 28.4 | – | –
CC(=O)N[C@H]1[C@@H](OP(=O)(O)OP(=O)(O)OC[C@H]2O[C@@H](n3ccc(=O)[nH]c3=O)[C@H](O)[C@@H]2O)O[C@H](CO)[C@@H](O)[C@@H]1O[C@H](C)C(=O)N[C@@H](C)C(=O)N[C@H](CCC(=O)N[C@@H](CCC[C@@H](N)C(=O)O)C(=O)O)C(=O)O [EB7021, UDP-M-Tri-DAP] | – | – | – | – | – | – | – | Synergy | –
CC(=O)NC1C(OP(=O)(O)OP(=O)(O)OC[C@H]2O[C@@H](n3ccc(=O)[nH]c3=O)C(O)C2O)OC(CO)C(O)C1OC(C)C(=O)NC(C)C(=O)NC(CCC(=O)NC(CCCC(N)C(=O)O)C(=O)NC(C)C(=O)O)C(=O)O (stereo partly shown) [EB7022, UDP-M-Tetrapeptide] | – | – | – | – | – | – | – | Synergy | –
